“Also recorded” adds a separate entry of the source.
Tests used:
[1] = target: T1, V2R (Homo sapiens, UniProt P30518); details: ligand is inverse agonist in the AC pathway; leads to activation of the ERK cascade; cited from earlier work
Target sequence in this assay (P30518 whole entry): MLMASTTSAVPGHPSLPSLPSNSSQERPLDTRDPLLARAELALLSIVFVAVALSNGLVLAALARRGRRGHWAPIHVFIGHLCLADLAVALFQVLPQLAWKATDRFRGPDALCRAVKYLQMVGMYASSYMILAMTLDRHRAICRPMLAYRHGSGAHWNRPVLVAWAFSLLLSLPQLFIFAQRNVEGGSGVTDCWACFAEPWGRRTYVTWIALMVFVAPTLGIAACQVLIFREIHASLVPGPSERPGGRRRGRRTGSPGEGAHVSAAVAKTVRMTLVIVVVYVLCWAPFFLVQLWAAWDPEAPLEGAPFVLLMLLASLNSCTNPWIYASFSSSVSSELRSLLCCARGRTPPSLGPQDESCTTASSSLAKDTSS
Target sequence in this assay (P32121 whole entry partner): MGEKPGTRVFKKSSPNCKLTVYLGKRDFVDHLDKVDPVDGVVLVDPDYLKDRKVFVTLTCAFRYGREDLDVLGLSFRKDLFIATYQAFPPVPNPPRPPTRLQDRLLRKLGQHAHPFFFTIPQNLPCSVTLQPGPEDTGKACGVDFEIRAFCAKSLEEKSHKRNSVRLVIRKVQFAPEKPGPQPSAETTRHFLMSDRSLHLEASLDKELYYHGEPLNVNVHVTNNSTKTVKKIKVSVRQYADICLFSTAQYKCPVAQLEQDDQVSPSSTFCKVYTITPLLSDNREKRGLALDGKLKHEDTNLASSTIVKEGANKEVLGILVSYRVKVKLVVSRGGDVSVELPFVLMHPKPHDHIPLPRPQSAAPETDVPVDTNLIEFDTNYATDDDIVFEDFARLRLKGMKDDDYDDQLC

[2] = target: T1, V2R; assay: Intramolecular BRET1 of double-brilliance β-arr (Luc-β-arr-YFP): conformational change of β-arr; format: cell-based; parameters: expressed in transfected cells; host or cells: HEK293; details: HEK293 cells co-expressing V2R and Luc-β-arr-YFP
Target sequence in this assay (P30518 whole entry): as the sequence (P30518 whole entry) above
Procedure: HEK293 cells were transfected with the indicated plasmids and BRET was measured at 25° C. in the presence of coelenterazine h. […] Data are the mean±s.e.m. of at least three independent experiments. *P<0.01 between treated and control condition.
The basal BRET signals were subtracted from each condition to express the data as ligand-induced BRET increase.
BRET assays. […] Briefly, cells were distributed in 96-well microplates (Corning, Corning, USA) and incubated with or without agonist for the indicated time at 25° C. The appropriate Luc substrate was added to a final concentration of 5 mM, either simultaneously with the agonist (time course) or following agonist treatment (single measurement or dose dependency), and readings were collected using a Multilabel Reader Mithras LB 940 (Berthold Technologies, Bad Wildbad, Germany). […] The BRET signal was determined by calculating the ratio of the light emitted by the fluorescent acceptor and the light emitted by Luc. The values were corrected by subtracting the background BRET signals detected when Luc-β-arr was expressed alone.

Question: For `CCOc1ccc2c(c1)C1(CCC(OCCN3CCOCC3)CC1)C(=O)N2S(=O)(=O)c1ccc(C(=O)NC(C)(C)C)cc1OC` (centres unmarked) [SR121463], which “recruitment of β-arr” value [1] is on record?
Answer: induced the recruitment of β-arr

Question: And the “ligand-induced intramolecular BRET increase” value [2]?
Answer: significantly lower than that induced by AVP treatment; also recorded: can promote an increase in the BRET signal

Source: patent US8883486B2, “Arrestin biosensor” (Universite de Montreal, priority 2004, dated 2014)
